According to patent US20170209579A1, “NON-INVASIVE RADIOFREQUENCY FIELD TREATMENT FOR CANCER THERAPY” (Baylor College of Medicine, priority 2014, published 2017):

Experiments:
Format in all cases: cell-based, human
[1] = tested on: Rad51; test: Colocalization of Rad51 with γ-H2AX foci at gemcitabine-stalled replication forks; conditions: Hep3B
Description: FIGS. 15A-15D provide inhibition of Mre11 and Rad51 recruitment at gemcitabine-stalled replication forks by hyperthermia. (15A) Hep3B cells were exposed to hyperthermia and/or gemcitabine. (15B) and (15C) Mre11 and Rad51 were recruited at gemcitabine-stalled replication forks. […] Scale bar=10 μm. (15D) Quantification of data from colocalization experiments. Data are mean Pearson correlation (a.u.) and error bars represent the SD from three independent experiments with 10 replicates each (*P<0.05, **P<0.01). Gem=Gemcitabine; HT=Hyperthermia; N/A=not applicable, i.e., in hyperthermia treated cells BrdU staining is not detected as distinct foci and therefore correlation could not be quantified; ns=not significant, by the Student unpaired two-sided t test in comparison with gemcitabine alone group. Also, see FIGS. 22-24. […]
For immunocytochemistry assay, an indirect immunofluorescence approach was used. […] Cells from an exponentially growing culture were counted and approximately 50,000 cells were seeded in each well of a 12-well plate. […]
(§1) The slides were sealed with a conventional nail polish hardener and stored at 4° C. until imaging. […] Exposure settings were set to maximize dynamic range initially and then kept constant across multiple samples to allow quantitative comparisons. […]

[2] = tested on: γ-H2AX foci in Hep3B cells; test: γ-H2AX foci in Hep3B cells (immunocytochemistry, confocal)
Experimental: Approximately 50,000 cells were seeded in each well of a 12-well plate and grown on circular #1.5 cover slips (Electron Microscopy Sciences, Hatfield, Pa.). After 24 hours, cells were exposed to various treatment conditions as described herein. At the end of treatment, cells were fixed, permeabilized, blocked, labeled with primary antibody, and then with secondary antibody in consecutive steps. For confocal imaging, Fluoview—FV1000 Olympus Confocal Microscope (Center Valley, Pa.) was used.
For immunocytochemistry assay, an indirect immunofluorescence approach was used. Circular #1.5 cover slips (Electron microscopy sciences, Hatfield, Pa.) were placed in 12-well plates and sterilized using a 20-minute UV exposure. Cells from an exponentially growing culture were counted and approximately 50,000 cells were seeded in each well of a 12-well plate. Adherent sub-confluent monolayers were observed growing on the cover slip 24 hours later. At this point, cells were exposed to various treatment conditions as described herein. At the end of treatment, immunolabeling of proteins being studied was performed. Cells were fixed, permeablized, blocked, labeled with primary antibody and then with secondary antibody in consecutive steps. Between each step, cells were washed with PBS three times for 5 minutes each time on a leveled shaker at 50 RPM. Cells were fixed with 1% paraformaldehyde in PBS (w/v) for 30 minutes. Permeablization was performed using 0.3% (v/v) Triton-100 and 0.125% (w/v) CHAPS (3-[(3-Cholamidopropyl) dimethylammonio]-1-propanesulfonate) dissolved in PBS for 15 minutes. […] Primary and secondary antibodies were diluted in the blocking buffer. Incubation with primary antibody was performed over night at 4° C. Secondary antibody incubations were performed for 2 hours at room temperature. […]
as §1

[3] = tested on: Hep3B cells; test: Clonogenic assay, Hep3B cells
Experimental: Clonogenic assay estimates single-cell reproductive viability by measuring the ability of a single cell to form a colony of 50 cells or more. Clonogenic assay in this study was performed as described previously (Franken et al., 2006). Briefly, cancer cells from an exponentially growing, sub-confluent culture were trypsinized and harvested. Approximately 200 cells were counted and plated in each well of a 6-well plate. Approximately 12 hours later, the cells were adherent and treatment conditions were introduced as described herein. After varying treatments, media was replaced and cells were allowed 14 days to form colonies. Subsequently, the media was aspirated and cells were washed with PBS once. Colonies were then fixed with glutaraldehyde (6.0% v/v) and stained with crystal violet (0.5% w/v) for 30 minutes on a leveled shaker at 50 RPM. The fixation and staining solution was then aspirated and the 6-well plates were air-dried after gentle rinsing with tap water. The number of colonies in each well was counted using a colony counting grid. […]
Clonogenic assays were performed on Hep3B cells and SNU449 cells after one of two combinations of hyperthermia and gemcitabine compared with hyperthermia or gemcitabine alone. […] Next, clonogenic viability was evaluated at a gemcitabine concentration of 5 ng/ml and varied the duration of hyperthermia (30 minutes to 4 hours). […]

Nc1ccn([C@@H]2O[C@H](CO)[C@@H](O)C2(F)F)c(=O)n1 [gemcitabine, 2′,2′-difluoro 2′-deoxycytidine]
mean Pearson correlation, Rad51 with γ-H2AX foci ([1]; gemcitabine alone (10 μg/ml)): 0.24 | mean Pearson correlation, Rad51 with γ-H2AX foci ([1]; hyperthermia 42.5° C. 75 minutes then gemcitabine 10 μg/ml): 0.44 | persistence of γ-H2AX positive cells, gemcitabine and hyperthermia versus either alone ([2]; gemcitabine 100 nM 24 hours, last two hours 42.5° C.): persisted for a longer duration | relative mean (±SD) γ-H2AX pixels per cell ([2]; gemcitabine alone): 1.0±0.26 | relative mean (±SD) γ-H2AX pixels per cell ([2]; hyperthermia immediately followed by gemcitabine): 1.0±0.20 | clonogenic survival, gemcitabine combined with hyperthermia ([3]; Hep3B, irrespective of dose schedule): dose-dependent enhancement of gemcitabine toxicity | clonogenic viability, varied duration of hyperthermia ([3]; gemcitabine 5 ng/ml, hyperthermia 30 minutes to 4 hours, cell line not named in the sentence (Hep3B and SNU449 in FIG. 17)): thermal dose-dependent enhancement in toxicity
